Measurements: PMC4861903, “Synthesis of a highly water-soluble acacetin prodrug for treating experimental atrial fibrillation in beagle dogs” (Scientific Reports, 2016)
Where two headings read alike, the source gives them in different places.

Legend:
[1] = Aqueous solubility by HPLC in H2O, 5% glucose and 0.9% NaCl; assay type: physicochemical; conditions: for solubility: 24 °C, room temperature (23–25 °C), n = 3, read-out: maximum solubility
[2] = molecular target: T1, hKv1.5 current (IKur, KCN5A) (Homo sapiens, UniProt P22460); assay: Whole-cell patch clamp of hKv1.5 current in HEK 293 cells; assay type: cell-based; conditions: 30 μM, at +50 mV, n = 5
T1 construct: expressed in transfected cells
T1 sequence (P22460 whole entry): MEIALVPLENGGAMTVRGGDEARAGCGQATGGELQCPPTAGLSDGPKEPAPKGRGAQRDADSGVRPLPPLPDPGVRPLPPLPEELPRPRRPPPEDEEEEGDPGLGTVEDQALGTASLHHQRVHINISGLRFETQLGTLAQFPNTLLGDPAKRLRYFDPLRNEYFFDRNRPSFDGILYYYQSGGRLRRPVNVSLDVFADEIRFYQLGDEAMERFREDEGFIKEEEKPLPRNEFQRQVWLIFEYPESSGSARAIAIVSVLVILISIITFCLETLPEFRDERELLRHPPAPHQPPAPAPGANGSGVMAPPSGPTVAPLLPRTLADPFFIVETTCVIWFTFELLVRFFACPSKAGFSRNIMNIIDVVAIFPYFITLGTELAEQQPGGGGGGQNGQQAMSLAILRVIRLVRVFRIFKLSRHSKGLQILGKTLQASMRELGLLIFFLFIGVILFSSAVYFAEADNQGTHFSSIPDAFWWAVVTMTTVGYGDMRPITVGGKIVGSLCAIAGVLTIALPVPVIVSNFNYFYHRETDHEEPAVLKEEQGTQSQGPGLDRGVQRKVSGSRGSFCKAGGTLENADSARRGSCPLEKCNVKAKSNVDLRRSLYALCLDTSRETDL
Description: (§1) Whole-cell currents of hKv1.5 and hKv4.3 were recorded in established HEK 293 cell lines stably expressing hKv1.5 (KCN5A) and hKv4.3 (KCND3) and IKACh was determined in isolated rat atrial myocytes as described previously[12][31][32] and in Supplemental Materials. […]
(§2) Effects of acacetin prodrug on cardiac potassium currents
(§3) Whole-cell currents of hKv1.5 and hKv4.3 were recorded in established HEK 293 cell lines stably expressing hKv1.5 (KCN5A) and hKv4.3 (KCND3).1, 2 The cells were cultured in Dulbecco’s modified eagle’s medium (DMEM, Invitrogen, Hong Kong) supplemented with 10% fetal bovine serum and 400 µg/mL G418. Cells on a coverslip were transferred to an open cell chamber (0.5 ml) mounted on the stage of an inverted microscope and superfused with Tyrode’s solution at 2 mL/min. The whole cell patch-clamp technique was used as described previously.1, 2 The whole-cell membrane currents were measured using an EPC-10 amplifier and Pulse software (Heka Elektronik, Lambrecht, Germany). Borosilicate glass electrodes (1.2-mm OD) were pulled with a Brown/Flaming puller (model P-97, Sutter Instrument, Nato, CA) and had resistances of 1.5~2.5 MΩ when filled with the pipette solution. A 3-M KCl agar bridge was used as the reference electrode. The tip potential was zeroed before the patch pipette contacted the cell. […]

[3] = molecular target: T2, hKv4.3 current (Ito, KCND3) (Homo sapiens, UniProt Q9UK17); assay: Whole-cell patch clamp of hKv4.3 current in HEK 293 cells; assay type: cell-based; conditions: 30 μM, at +50 mV, n = 5
T2 construct: expressed in transfected cells
T2 sequence (Q9UK17 1-655): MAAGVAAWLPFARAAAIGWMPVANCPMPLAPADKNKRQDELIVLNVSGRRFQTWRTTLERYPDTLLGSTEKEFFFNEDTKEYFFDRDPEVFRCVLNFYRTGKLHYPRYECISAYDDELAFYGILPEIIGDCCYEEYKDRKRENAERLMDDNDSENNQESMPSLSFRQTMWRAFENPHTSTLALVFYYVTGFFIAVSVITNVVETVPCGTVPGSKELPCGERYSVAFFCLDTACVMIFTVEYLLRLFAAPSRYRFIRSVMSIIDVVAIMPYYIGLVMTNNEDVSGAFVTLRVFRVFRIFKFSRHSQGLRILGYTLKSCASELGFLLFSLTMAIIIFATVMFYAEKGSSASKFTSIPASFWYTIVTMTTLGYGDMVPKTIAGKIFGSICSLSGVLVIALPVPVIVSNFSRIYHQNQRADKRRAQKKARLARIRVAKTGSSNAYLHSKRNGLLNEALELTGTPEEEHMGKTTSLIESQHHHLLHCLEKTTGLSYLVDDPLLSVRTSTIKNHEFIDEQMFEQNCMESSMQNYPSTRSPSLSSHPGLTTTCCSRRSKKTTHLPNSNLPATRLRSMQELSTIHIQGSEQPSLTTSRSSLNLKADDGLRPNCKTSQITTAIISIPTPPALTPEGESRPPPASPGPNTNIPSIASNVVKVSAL
Description: as §1, §2, §3

hERG channels = molecular target: T3, hERG channels (Homo sapiens, UniProt Q12809); assay: hERG current in HEK 293 cells; assay type: cell-based; conditions: 30 μM, n = 4, data not shown
T3 construct: expressed in transfected cells; host or cells: HEK 293
T3 sequence (Q12809 whole entry): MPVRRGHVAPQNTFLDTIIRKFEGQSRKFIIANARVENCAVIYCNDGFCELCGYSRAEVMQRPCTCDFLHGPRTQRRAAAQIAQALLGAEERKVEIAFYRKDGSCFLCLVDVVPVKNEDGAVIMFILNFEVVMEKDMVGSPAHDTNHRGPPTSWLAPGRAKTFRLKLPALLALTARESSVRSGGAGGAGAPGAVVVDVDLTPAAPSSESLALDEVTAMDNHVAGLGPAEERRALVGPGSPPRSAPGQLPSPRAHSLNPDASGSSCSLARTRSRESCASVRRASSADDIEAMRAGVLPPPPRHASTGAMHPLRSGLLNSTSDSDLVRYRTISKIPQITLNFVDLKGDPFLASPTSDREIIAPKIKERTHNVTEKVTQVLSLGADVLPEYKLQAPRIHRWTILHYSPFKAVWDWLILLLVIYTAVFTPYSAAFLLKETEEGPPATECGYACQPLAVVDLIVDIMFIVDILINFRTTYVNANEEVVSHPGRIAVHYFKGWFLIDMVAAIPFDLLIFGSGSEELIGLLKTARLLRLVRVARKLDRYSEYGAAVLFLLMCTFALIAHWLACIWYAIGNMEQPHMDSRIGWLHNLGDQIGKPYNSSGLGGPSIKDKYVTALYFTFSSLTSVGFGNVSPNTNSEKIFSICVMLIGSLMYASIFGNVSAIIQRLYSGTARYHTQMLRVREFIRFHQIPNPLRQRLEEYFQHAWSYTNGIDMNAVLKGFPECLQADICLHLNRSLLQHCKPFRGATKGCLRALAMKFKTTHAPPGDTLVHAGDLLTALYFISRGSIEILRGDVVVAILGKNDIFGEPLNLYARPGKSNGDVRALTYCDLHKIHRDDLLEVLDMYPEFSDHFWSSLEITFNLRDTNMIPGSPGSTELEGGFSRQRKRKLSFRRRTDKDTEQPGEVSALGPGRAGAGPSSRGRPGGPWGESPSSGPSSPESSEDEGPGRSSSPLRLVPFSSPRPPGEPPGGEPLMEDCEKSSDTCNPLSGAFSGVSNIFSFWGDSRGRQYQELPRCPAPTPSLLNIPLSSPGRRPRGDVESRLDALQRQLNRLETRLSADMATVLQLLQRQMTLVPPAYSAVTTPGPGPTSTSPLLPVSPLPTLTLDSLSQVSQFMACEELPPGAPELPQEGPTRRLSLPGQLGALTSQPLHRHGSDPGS

[4] = Ex vivo bioconversion of acacetin prodrug in rat liver microsome; assay type: in vitro ADME; conditions: 37 °C, n = 3
Description: The ex vivo bioconversion of acacetin prodrug was determined in rat plasma or rat hepatic microsome that contains high content alkaline phosphatase, as described previously[30] and in Supplemental Materials. The in vivo bioconversion of acacetin prodrug was determined in beagle dogs as described in Supplemental Materials. […]
Bioconversion of acacetin prodrug was also determined in rat hepatic microsomes containing high content alkaline phosphatase,5 as described previously.6 Sprague-Dawley rat liver microsomes were purchased from Invitrogen (Hong Kong, China). The reaction mixture was prepared in 50 mM Tris-HCl buffer (pH = 7.4) with 1 mM NADPH (nicotinamide adenine dinucleotide phosphate) and 0.5 mg/mL (total protein) microsomes. Prodrug solutions were added to the microsomes reaction mixture with a final concentration of 5 µg/mL. The reaction solution was incubated in a water bath at 37℃ and shaken at 60 rpm for 1 h. The samples were collected at 0, 1, 2, 15, 30 and 60 min. The reaction was terminated by adding 200 μL cold methanol containing internal standard (pentamethylquercetin, 50 ng/ml). After centrifugation at 12000 g for 30 min, the supernatant was immediately analyzed by HPLC. […]

## COc1ccc(-c2cc(=O)c3c(O)cc(OP(=O)([O-])[O-])cc3o2)cc1.[Na+].[Na+] [acacetin prodrug, phosphate sodium salt of acacetin]
[1]; saline or isotonic, in 0.9% NaCl
  solubility: 88.6 ± 4.3 mg/mL
[1]; saline or isotonic, in 5% glucose
  solubility: 91.4 ± 2.7 mg/mL
[1]; water, in H2O
  solubility: 126 ± 2.5 mg/mL
[1]; in 5% glucose or 0.9% NaCl
  solubility higher compared to parent compound acacetin: more than forty five thousand folds higher
[1]; in H2O
  solubility higher compared to parent compound acacetin: more than 1.9 million folds
[2]
  inhibition of hKv1.5 current: no significant inhibition
[3]
  inhibition of hKv4.3 current: no significant inhibition
hERG channels
  effect on hERG channels: no such effect
[4]; 1 min incubation
  prodrug converted into acacetin: 60%
[4]; 30 min incubation
  prodrug converted into acacetin: 100%
